Where a SMILES comes first, the peptide text is derived from it. Bridges are numbered along the chain shown (N, C = ends). [ ]: non-standard residue; d: D form.

These results are taken from US9896482B2, “Beta hairpin peptides having antiviral properties against Dengue virus” (CENTRO DE INGENIERÍA GENÉTICA Y BIOTECNOLOGÍA, priority 2014, dated 2018).

For series [1], the system named is DENV serotype 2 (NIBSC code S16803). The series is described as follows: Plaque reduction assay in Vero cells, DENV2. It counts as cell-based, Dengue virus. As to conditions: DENV2, plaque reduction; NA = no detectable activity at concentrations lower than or equal to 100 μM; read-out: IC50, antiviral activity in Vero cells (50% inhibitory activity). The protocol: The cells were grown in 24 well plates until the monolayer reached approximately 90% confluence, after which they were washed twice with MEM medium without Fetal Bovine Serum (FBS). Then, peptide dilutions were added and the cell-peptide mixtures were incubated typically for 1 hour at 37° C., followed by the addition of a DENV serotype 2 preparation (NIBSC code S16803) at a multiplicity of infection (m.o.i.) of 0.001. The cells were then incubated for 1 hour at 37° C., and once the period of incubation with the viral inoculum concluded, were washed again to remove unbound virions and incubated for 5 days at 37° C. in high density medium (MEM supplemented with non-essential amino acids, 1% FBS, 1% carboxymethylcellulose) in order to let viral plaques form. Afterwards, the cells were stained with 0.1% Naphtol Blue Black in 0.15 M sodium acetate. Two replicates per experimental point were used in each assay, and three independent determinations were performed for each sample.
Next, it was decided to compare the antiviral activity of peptides PHB4 and HDIII3CL against all four DENV serotypes, with the objective of comparing their respective IC50 values. This comparison was performed with plaque reduction assays on Vero cells, adding the viral inoculum for each serotype (DENV1, NIBSC code West Pac 74, DENV2, NIBSC, code S16803; DENV3, NIBSC, code CH53489; DENV 4, NIBSC code TVP360) at a m.o.i. of 0.001.

A short description of series [2]: Toxicity in Vero cells (MTT assay and manual cell counting). It counts as cell-based. The settings on record: ‡ non toxic at 1000 μM, read-out: Ctox50. As to the method: The toxicity of the beta hairpin peptides was assessed with the MTT (3-(4,5-dimethylthiazol-2-yl)-2,5-diphenyltetrazolium bromide, Invitrogen, USA) assay (Mosmann, T. (1983). J. Immunol. Methods 65, 55-63.), and by manual cell counting using a Neubauer chamber. Ninety-six well plates (Costar, USA) were seeded with 200 μL/well of a suspension containing Vero cells at 1×10^5 cells/mL and incubated until the monolayers reached approximately 90% confluence, typically for 18-24 h. After washing the cells twice with DMEM (Dulbecco's Modified Eagle Medium) medium, 50 μL/well were added of the peptide or additive dilutions to be evaluated (Triton ^X-100™ dissolved in PBS was used as positive toxicity control) and the plates were incubated at 37° C. under a 5% CO2 atmosphere for 2 or 24 h. Two different procedures were then employed to measure toxicity: • a) A 2 mg/mL solution of MTT in PBS was added (50 μL/well) and the plates were incubated for further 4 h at 37° C., 5% CO2. The medium was then removed, and 100 μL/well of DMSO were then added to solubilize formazan precipitates. Finally, the optical density (OD) of the supernatants at a wavelength of 540 nm was measured using a plate reader (Sensident Scan™, Merck, Germany). • b) The plates were washed with 200 μL/well of DMEM medium and then a trypsin solution (Sigma, USA) was added at 50 μL/well. After inactivating the trypsin by adding 150 μL/well of DMEM supplemented with 10% FBS, the cells were counted using the Trypan Blue (Gibco, USA) vital stain. The data were processed using the statistical software package Prism v5.3 (GraphPad, USA), using non-linear regression to fit them to a log10 (concentration) vs response curve.

Series [3] has as its target T1, sLRP1-CIV (Homo sapiens, UniProt Q07954).
T1 construct: purchased R&D Systems, USA
As to the kind of experiment: Biacore (SPR) binding to immobilized sLRP1-CIV. As to conditions: peptides at 20 μM. The protocol:
The interaction of the beta hairpin peptides with soluble fragments of the LRP1 receptor was studied by Surface Plasmon Resonance (SPR), using a Biacore X unit. In this technique, one of the interaction partners to be studied is immobilized on the surface of a chip, and the other interaction partner is dissolved in a solution that runs through the measurement cell on top of the interaction surface, under conditions of controlled flow. The association and dissociation of interacting partners is measured in resonance units (RU) and plotted, as a function of time, on charts known as ‘sensorgrams’. SPR, therefore, enables the experimenter to obtain detailed information about the interaction without having to label either interaction partner.
In this example, one channel of a CM5 chip (GE Healthcare, USA) was used to immobilize protein sLRP1-CIV on its surface at high density (see Table 6) and recombinant Human Serum Albumin (rHSA, Sigma-Aldrich, USA) was immobilized on the other channel.
Although it was decided to immobilize sLRP1-CIV at high density because these conditions make easier the detection of any potential interactions with compounds whose molecular weight is lower than that of average proteins (such as the peptides this experiment is intended to study), it must be stressed that in high-density surfaces, mass transfer limitations and the possibility of multivalent binding make difficult the accurate determination of kinetic constants. Therefore, and in order to characterize in greater detail the sLRP1-CIV binding surface, different RAP dilutions (0.6-20 μM) were loaded, and RU were registered under conditions of interaction equilibria (250 sec, see FIG. 13B). […] The data also indicate that immobilized sLRP1-CIV faithfully reproduces the previously reported characteristics of the LRP1-RAP interaction.
The binding of beta hairpin peptides to sLRP1-CIV was studied by loading 20 μM dilutions in running buffer of the different peptide variants onto the sLRP1-CIV chip characterized above. The high strength of the resulting signals is consistent with the binding of aggregated, rather than monomeric forms of the peptides. Therefore, the observed variations between different peptides may reflect either differences in the affinity of unitary peptide interactions or differences in aggregation numbers and/or geometries that lead to variations in the number of peptide units able to simultaneously engage immobilized sLRP1-CIV molecules in a multivalent manner. […] The difference between peptides HDIII3CL2 and HDIII3CL is that the former has an additional C-terminal lysine and has, therefore, a stronger cationic character, which may facilitate additional electrostatic interactions with the negatively charged LRP1 receptor.

With `CC(C)[C@H](NC(=O)[C@H](CC(N)=O)NC(=O)[C@H](Cc1c[nH]c2ccccc12)NC(=O)[C@@H](NC(=O)[C@H](Cc1c[nH]c2ccccc12)NC(=O)[C@H](CCCCN)NC(=O)[C@H](CC(N)=O)NC(=O)[C@@H](CCCCN)NC(=O)[C@H](CCC(=O)O)NC(=O)[C@H](Cc1c[nH]c2ccccc12)NC(=O)[C@H](CCCCN)NC(=O)[C@H](Cc1c[nH]c2ccccc12)NC(=O)[C@H](CC(N)=O)NC(=O)[C@H](Cc1c[nH]c2ccccc12)NC(=O)[C@@H](N)Cc1ccccc1)[C@@H](C)O)C(=O)N[C@@H](CCC(=O)O)C(=O)NCC(=O)NCC(=O)N[C@@H](CCCCN)C(=O)N[C@@H](CCCCN)C(=O)N[C@@H](CCCCN)C(N)=O` [PHB5] (H-FWNWKWE[dK]NKWTWNVEGGKKK-NH2), the 50% inhibitory concentration (IC50) in series [1] was 17 µM. In addition, the CC50 in series [2] stood at 259 µM. On the same counts, the results for `CC[C@H](C)[C@@H]1NC(=O)[C@H](Cc2ccccc2)NC(=O)[C@H](Cc2c[nH]c3ccccc23)NC(=O)[C@H](CC(N)=O)NC(=O)[C@H](Cc2ccc(O)cc2)NC(=O)[C@H](CCCCN)NC(=O)[C@H](CCCCN)NC(=O)CNC(=O)[C@H](CC(N)=O)NC(=O)[C@H]([C@@H](C)CC)NC(=O)[C@H]([C@@H](C)O)NC(=O)[C@H](C(C)C)NC(=O)[C@H](Cc2ccc(O)cc2)NC(=O)[C@H](C(C)C)NC(=O)[C@H](CCC(=O)O)NC(=O)[C@H]([C@@H](C)CC)NC(=O)[C@@H](N)CSSC[C@@H](C(=O)N[C@@H](CCCCN)C(=O)N[C@@H](CCCCN)C(=O)N[C@@H](CCCCN)C(N)=O)NC1=O` [PHB9] (H-CIEVYVTINGKKYNWFICKKK-NH2; disulfide 1-18) are 7 µM and 216 µM.

For HDIII3CLW-, in series [3], the “Binding to sLRP1-CIV by SPR, in words” value is listed as “detectable specific binding”. On the same count and under the same terms, under HDIII3CLC- stands “at most marginal interaction”. With `CC(C)[C@H](NC(=O)[C@H](CC(N)=O)NC(=O)[C@H](Cc1c[nH]c2ccccc12)NC(=O)[C@@H](NC(=O)[C@H](Cc1c[nH]c2ccccc12)NC(=O)[C@H](CCCCN)NC(=O)[C@H](CC(N)=O)NC(=O)[C@H]1CCCN1C(=O)[C@H](CCC(=O)O)NC(=O)[C@H](Cc1c[nH]c2ccccc12)NC(=O)[C@H](CCCCN)NC(=O)[C@H](Cc1c[nH]c2ccccc12)NC(=O)[C@H](CC(N)=O)NC(=O)[C@H](Cc1c[nH]c2ccccc12)NC(=O)[C@@H](N)Cc1ccccc1)[C@@H](C)O)C(=O)N[C@@H](CCC(=O)O)C(=O)NCC(=O)NCC(=O)N[C@@H](CCCCN)C(=O)N[C@@H](CCCCN)C(=O)N[C@@H](CCCCN)C(N)=O` [PHB6] (H-FWNWKWE[dP]NKWTWNVEGGKKK-NH2), in series [1], the half-inhibitory concentration (IC50) came out at 33 µM. Besides, the CC50 in series [2] came out at 411 µM. On the same counts, the results for `CC(C)[C@@H]1NC(=O)[C@H](CCCCN)NC(=O)[C@H](Cc2c[nH]c3ccccc23)NC(=O)[C@H](CCCCN)NC(=O)[C@H]2CCCN2C(=O)[C@H](CCCNC(=N)N)NC(=O)[C@H]([C@@H](C)O)NC(=O)[C@H](Cc2c[nH]c3ccccc23)NC(=O)[C@H](Cc2ccc(O)cc2)NC(=O)[C@H](C(C)C)NC(=O)[C@@H](N)CSSC[C@@H](C(=O)N[C@@H](CCCCN)C(=O)N[C@@H](CCCCN)C(=O)N[C@@H](CCCCN)C(N)=O)NC(=O)[C@H](Cc2c[nH]c3ccccc23)NC(=O)[C@H](CC(N)=O)NC1=O` [PHB2] (H-CVYWTR[dP]KWKVNWCKKK-NH2; disulfide 1-14) are 12 µM and 85 µM.

As to `CC[C@H](C)[C@@H]1NC(=O)[C@H]([C@@H](C)O)NC(=O)[C@H](C(C)C)NC(=O)[C@H](CC(N)=O)NC(=O)[C@H](C(C)C)NC(=O)[C@@H](N)CSSC[C@@H](C(=O)N[C@@H](CCCCN)C(=O)N[C@@H](CCCCN)C(=O)N[C@@H](CCCCN)C(N)=O)NC(=O)[C@H](Cc2c[nH]c3ccccc23)NC(=O)[C@H](CC(N)=O)NC(=O)[C@H](Cc2ccc(O)cc2)NC(=O)[C@H](CCCCN)NC(=O)[C@H](CCCCN)NC(=O)CNC(=O)[C@H](CC(N)=O)NC1=O` [PHB7] (H-CVNVTINGKKYNWCKKK-NH2; disulfide 1-14), in series [1], the half-inhibitory concentration (IC50) came to 79 µM. In addition, in series [2], the CC50 came out at 1910 µM. In the same order, the values of `CC[C@H](C)[C@@H]1NC(=O)[C@H](Cc2ccccc2)NC(=O)[C@H](Cc2c[nH]c3ccccc23)NC(=O)[C@H](CC(N)=O)NC(=O)[C@H](Cc2ccc(O)cc2)NC(=O)[C@H](CCCCN)NC(=O)[C@H](CCCCN)NC(=O)CNC(=O)[C@H](CC(N)=O)NC(=O)[C@H]([C@@H](C)CC)NC(=O)[C@H]([C@@H](C)O)NC(=O)[C@H](C(C)C)NC(=O)[C@H](CC(N)=O)NC(=O)[C@H](C(C)C)NC(=O)[C@H](CCC(=O)O)NC(=O)[C@H]([C@@H](C)CC)NC(=O)[C@@H](N)CSSC[C@@H](C(=O)N[C@@H](CCCCN)C(=O)N[C@@H](CCCCN)C(=O)N[C@@H](CCCCN)C(N)=O)NC1=O` [PHB8] (H-CIEVNVTINGKKYNWFICKKK-NH2; disulfide 1-18) are 15 µM and 300 µM. HDIII3CLK-: the “Binding to sLRP1-CIV by SPR, in words” value in series [3] is “detectable specific binding”. Take `CC[C@H](C)[C@@H]1NC(=O)CNC(=O)[C@H]([C@@H](C)CC)NC(=O)[C@H](C(C)C)NC(=O)[C@H]([C@@H](C)CC)NC(=O)[C@H](CC(N)=O)NC(=O)[C@H](CO)NC(=O)[C@@H](N)CSSC[C@@H](C(=O)N[C@@H](CCCCN)C(=O)N[C@@H](CCCCN)C(=O)N[C@@H](CCCCN)C(N)=O)NC(=O)[C@H](Cc2c[nH]c3ccccc23)NC(=O)[C@H](CC(N)=O)NC(=O)[C@H]([C@@H](C)CC)NC(=O)[C@H](CCCCN)NC(=O)[C@H](CC(C)C)NC(=O)[C@H](C)NC(=O)[C@H](CCCCN)NC(=O)[C@H](CC(=O)O)NC(=O)CNC1=O` [HDIII3CL2, reference compound] (H-CSNIVIGIGDKALKINWCKKK-NH2; disulfide 1-18): the IC50 in series [1] worked out at 20 µM. Moreover, the CC50 in series [2] stood at 1000 µM.
